Values of other authors, collected in US20190209701A1, “COMBINATION THERAPY WITH A MEK INHIBITOR, A PD-1 AXIS INHIBITOR, AND A TAXANE” (Genentech, Inc., priority 2016, published 2019).
Like-named read-outs stand apart in the source and are kept apart here.

What was measured:
human tumor cell lines = settings: through inhibition of MEK1 and MEK2
[1] = tested on: human tumor xenograft models
[2] = tested on: cancer patients who harbored a BRAF, NRAS, or KRAS mutation
[3] = concentration-independent
[4] = not given; remark: listed apart in the source
[5] = not given; remark: listed apart in the source

dose linearity of pharmacokinetics (dose range of 0.05 mg/kg (approximately 3.5 mg for 70 kg adult) to 80 mg) | food effect on pharmacokinetics (fed state compared with fasted state, healthy subjects) | mean terminal half-life (t1/2) (oral) [h] | absolute bioavailability (study MEK4952g in healthy subjects, 90% CI: 39.74%, 53.06%) [%] | effect of proton pump inhibitor rabeprazole on pharmacokinetics (with or without high-fat meal vs cobimetinib alone in the fasted state) | binding to plasma proteins [3] [%] | Compound | proliferation of a variety of human tumor cell lines (human tumor cell lines) | tumor regression ([1]; dose dependent, highest doses tested, CRC, malignant melanoma, breast carcinoma, lung carcinoma models) | ERK phosphorylation in xenograft tumor models ([1]; xenograft tumor models) | response of colorectal cancer (CRC) patients ([2]; 14 CRC patients) | unconfirmed tumor responses ([2]; Stage III of Study MEK4592g, 2 patients) [%] | patients with confirmed partial response (PR) ([2]; Study MEK4592g overall, 6 patients, all melanoma) [%] | patients with progressive disease ([2]; Study MEK4592g overall, 40 patients) [%] | Kaplan-Meier estimated overall 24-week progression-free survival (PFS) rate ([4]; Study PCD4989g, 95% CI: 12%, 53%) [%] | anti-tumor activity ([4]; across doses from 1 to 20 mg/kg) | exposure of fixed dose 800 mg q2w versus 1200 mg q3w ([5]; 800 mg every two weeks (equivalent to 10 mg/kg q2w) vs Phase III dose of 1200 mg q3w) | dose linearity of pharmacokinetics ([5]; doses ≥1 mg/kg every three weeks (q3w))
linear pharmacokinetics | not altered | 48.8 | 45.9 | minimal effect | 95 | O=C(c1ccc(F)c(F)c1Nc1ccc(I)cc1F)N1CC(O)([C@@H]2CCCCN2)C1 [Cobimetinib] | inhibits proliferation | up to 100% | inhibits ERK phosphorylation | all patients experienced progressive disease | 11.1 | 6.2 | 41.2 |  |  |  | 
 |  |  |  |  |  | Atezolizumab: anti-PD-L1 antibody, CAS Registry Number: 1422185-06-5 |  |  |  |  |  |  |  | 33 | anti-tumor activity has been observed | equivalent exposure | linear and consistent with typical IgG1 antibodies
